The values below come from paper PMC11993615, “Design, synthesis and optimization of TarO inhibitors as multifunctional antibiotics against Methicillin-resistant Staphylococcus aureus” (npj Antimicrobials and Resistance, 2025).

The test has as its system bacteria. In words: MIC determination, positive control (strain not stated). The note with it: 24 h.

The structures appear in SMILES notation. Values after ≈ are worked out from the molar mass of the structure shown.

The molecule `CN[C@H](CC(C)C)C(=O)N[C@H]1C(=O)N[C@@H](CC(N)=O)C(=O)N[C@H]2C(=O)N[C@H]3C(=O)N[C@H](C(=O)N[C@H](C(=O)O)c4cc(O)cc(O)c4-c4cc3ccc4O)[C@H](O)c3ccc(c(Cl)c3)Oc3cc2cc(c3O[C@@H]2O[C@H](CO)[C@@H](O)[C@H](O)[C@H]2O[C@H]2C[C@](C)(N)[C@H](O)[C@H](C)O2)Oc2ccc(cc2Cl)[C@H]1O` [vancomycin] registered an MIC of 1 µg/mL (≈ 0.69 µM).
